Patent publication US4112228A, “7-(D-α-Hydroxy-2-arylacetamido)-3-(2-carboxyalkyl-2,3-dihydro-s-tri azolo-[4,3-b]pyridazin-3-on-6-ylthiomethyl)-3-cephem-4-carboxylic acids and derivatives” (priority 1977, dated 1978)
Read-outs that look alike come from different tables or passages of the source.

What was measured:
[1] = Blood levels in mice after subcutaneous administration; type: in vivo; settings: mouse, read-out: Blood level; for concentration at 0.25 h: 15'; for concentration at 0.5 h: 30'; for concentration at 1 h: 60'; for concentration at 2 h: 120'
Procedure: Groups of mice were administered subcutaneously graded doses of 40, 20 and 10 mg./kg..

Kl. pneumoniae = test: MIC by Steers' agar dilution method; type: cell-based; settings: Klebsiella pneumoniae
E. coli = test: MIC by Steers' agar dilution method; type: cell-based; settings: Escherichia coli

Cn1nnnc1SCC1=C(C(=O)O)N2C(=O)[C@@H](NC(=O)[C@H](O)c3ccccc3)[C@H]2SC1 [Cefamandole, cefamandole, reference compound]
1000 ng/mL: concentration at 1 h ([1]; sc 20 mg./kg.)
< 100 ng/mL: concentration at 2 h ([1]; sc 20 mg./kg.)
3.1 µg/mL: MIC (Kl. pneumoniae; A9678, MHA, Table 1) | MIC (Kl. pneumoniae; Kp-10 A20328, MHA, Table 3) | MIC (Kl. pneumoniae; strain not named (1st of 4), MHA, Example 10) | MIC (E. coli; ATCC8739, ATCC 8739, MHA, Example 10) | MIC (E. coli; BX-1373, MHA, Example 10, read-out: MIC) | MIC (E. coli; Ec-36 A15147 (β-lactamase), HIA, Table 4, read-out: MIC) | MIC (E. coli; Ec-36 A15147 (β-lactamase), MHA, Table 4, read-out: MIC)
1500 ng/mL: concentration at 0.5 h ([1]; sc 10 mg./kg.)
9500 ng/mL: concentration at 0.25 h ([1]; sc 20 mg./kg.)
100 ng/mL: concentration at 2 h ([1]; sc 10 mg./kg.)
0.8 µg/mL: MIC (Kl. pneumoniae; A9867, MHA, Table 1) | MIC (Kl. pneumoniae; A15130, MHA, Table 1) | MIC (Kl. pneumoniae; Kp-1 D11, MHA, Table 3) | MIC (Kl. pneumoniae; Kp-3 A9977, HIA, Table 4) | MIC (Kl. pneumoniae; Kp-3 A9977, MHA, Table 3) | MIC (Kl. pneumoniae; Kp-3 A9977, MHA, Table 4) | MIC (Kl. pneumoniae; Kp-4 A15130, HIA, Table 4) | MIC (Kl. pneumoniae; Kp-4 A15130, MHA, Table 3) | MIC (Kl. pneumoniae; Kp-4 A15130, MHA, Table 4) | MIC (Kl. pneumoniae; Kp-4 A15130, NA, Table 4) | MIC (Kl. pneumoniae; Kp-7 A9867, MHA, Table 3) | MIC (Kl. pneumoniae; strain not named (2nd of 4), MHA, Example 10) | MIC (Kl. pneumoniae; strain not named (3rd of 4), MHA, Example 10) | MIC (Kl. pneumoniae; strain not named (4th of 4), MHA, Example 10) | MIC (E. coli; BX-1373, MHA, Table 1, read-out: MIC) | MIC (E. coli; Ec-3 Juhl A15119, MHA, Table 3, read-out: MIC) | MIC (E. coli; Ec-5 K-12, ML-1630 A20363, MHA, Table 3, read-out: MIC) | MIC (E. coli; Ec-35 A9435, MHA, Table 3, read-out: MIC) | MIC (E. coli; Ec-40 A20361, MHA, Table 3, read-out: MIC)
0.05 µg/mL: MIC (E. coli; ATCC8739, ATCC 8739, MHA, Table 1, read-out: MIC) | MIC (E. coli; Ec-1 NIHJ, MHA, Table 4, read-out: MIC)
12.5 µg/mL: MIC (Kl. pneumoniae; Kp-8 A20680, MHA, Table 3) | MIC (Kl. pneumoniae; Kp-9 A20636, MHA, Table 3) | MIC (Kl. pneumoniae; Kp-11 A20330, MHA, Table 3)
50 µg/mL: MIC (E. coli; Ec-11 A20366 (β-lactamase), MHA, Table 4, read-out: MIC) | MIC (E. coli; Ec-11 A20366 (β-lactamase), NA, Table 4, read-out: MIC)
0.2 µg/mL: MIC (Kl. pneumoniae; A9977, MHA, Table 1) | MIC (E. coli; Ec-3 Juhl A15119, NA, Table 4, read-out: MIC)
300 ng/mL: concentration at 1 h ([1]; sc 10 mg./kg.) | concentration at 2 h ([1]; sc 40 mg./kg.)
4100 ng/mL: concentration at 0.5 h ([1]; sc 20 mg./kg.)
0.4 µg/mL: MIC (Kl. pneumoniae; Kp-3 A9977, NA, Table 4) | MIC (E. coli; A15147, MHA, Table 1, read-out: MIC) | MIC (E. coli; A15810, MHA, Table 1, read-out: MIC) | MIC (E. coli; Ec-3 Juhl A15119, HIA, Table 4, read-out: MIC) | MIC (E. coli; Ec-3 Juhl A15119, MHA, Table 4, read-out: MIC)
1.6 µg/mL: MIC (Kl. pneumoniae; Kp-2 A9678, MHA, Table 3) | MIC (E. coli; Ec-36 A15147 (β-lactamase), NA, Table 4, read-out: MIC) | MIC (E. coli; Ec-36 A15147, MHA, Table 3, read-out: MIC) | MIC (E. coli; Ec-45 A15148, MHA, Table 3, read-out: MIC)
0.1 µg/mL: MIC (E. coli; A9660, MHA, Table 1, read-out: MIC) | MIC (E. coli; ATCC8739, Ec-15 ATCC 8739, HIA, Table 4, read-out: MIC) | MIC (E. coli; ATCC8739, Ec-15 ATCC 8739, MHA, Table 3, read-out: MIC) | MIC (E. coli; ATCC8739, Ec-15 ATCC 8739, MHA, Table 4, read-out: MIC) | MIC (E. coli; ATCC8739, Ec-15 ATCC 8739, NA, Table 4, read-out: MIC) | MIC (E. coli; Ec-1 NIHJ, HIA, Table 4, read-out: MIC) | MIC (E. coli; Ec-1 NIHJ, MHA, Table 3, read-out: MIC) | MIC (E. coli; Ec-1 NIHJ, NA, Table 4, read-out: MIC) | MIC (E. coli; Ec-34 A9660, MHA, Table 3, read-out: MIC) | MIC (E. coli; Ec-44 A9535, MHA, Table 3, read-out: MIC)
3900 ng/mL: concentration at 1 h ([1]; sc 40 mg./kg.)
25 µg/mL: MIC (E. coli; Ec-11 A20366 (β-lactamase), HIA, Table 4, read-out: MIC) | MIC (E. coli; Ec-11 A20366, MHA, Table 3, read-out: MIC)
18000 ng/mL: concentration at 0.25 h ([1]; sc 40 mg./kg.)
6.3 µg/mL: MIC (Kl. pneumoniae; Kp-12 A21228, MHA, Table 3) | MIC (E. coli; Ec-4 A15169, MHA, Table 3, read-out: MIC)
11000 ng/mL: concentration at 0.5 h ([1]; sc 40 mg./kg.)
3800 ng/mL: concentration at 0.25 h ([1]; sc 10 mg./kg.)
